Test results reported in the NIST ThermoML archive (doi:10.1021/acs.jced.8b00793).

Settings: 100 kPa, Liquid; for viscosity: Concentric cylinders viscometry; for mass density: Vibrating tube method

CCO [ethanol]
Settings	mass density [kg/m3]	viscosity [mPa·s]
293.15 K	790.7	1.23
303.15 K	782.2	1.02
313.15 K	773.4	0.85
323.15 K	760.1	0.71
